In patent publication US5811445A, “Method of preventing abnormal stimulation of AT1 and AT2 receptors” (Roussel Uclaf, priority 1994, dated 1998):
Counter-ions that a name gives are not always drawn. Like-named read-outs stand apart in the source and are kept apart here.

What was measured:
[1] = target: T1, AT2 receptor of angiotensin II (Oryctolagus cuniculus, UniProt G1T351); assay: Test on the AT2 receptor of angiotensin II (displacement of 125I angiotensin II, rabbit uterus membranes); assay type: binding
T1 construct: A fresh membrane preparation obtained from rabbit's uterus is used; from tissue; host or cells: uterus membranes of estradiol-treated rabbits
T1 sequence (G1T351 1-363): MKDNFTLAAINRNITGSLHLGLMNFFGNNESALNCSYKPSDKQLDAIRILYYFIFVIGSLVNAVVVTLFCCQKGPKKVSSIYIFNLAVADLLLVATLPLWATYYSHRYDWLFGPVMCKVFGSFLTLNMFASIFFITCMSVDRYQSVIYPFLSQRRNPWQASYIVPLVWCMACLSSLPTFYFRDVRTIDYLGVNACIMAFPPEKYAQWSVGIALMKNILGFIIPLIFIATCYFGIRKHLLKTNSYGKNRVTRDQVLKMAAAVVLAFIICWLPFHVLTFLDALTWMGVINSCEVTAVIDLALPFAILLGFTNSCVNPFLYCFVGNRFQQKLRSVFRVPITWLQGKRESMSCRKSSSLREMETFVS
Description: 2) Test on the AT2 receptor of angiotensin II
The tissue is ground up in a polytron in a 50 mM Tris buffer pH 7.4, and the grinding is followed by 3 centrifugations at 30,000 g for 15 minutes, with intermediate take up of the pellets in the Tris buffer pH 7.4.
The homogenate obtained is preincubated for 20 minutes at 25° C. in the presence of 10 mM dithiothreitol, then brought back to 0°-4° C.
(§1) The product is first tested at 3.10^-5 M three times. When the tested product displaces more than 50% of the radioactivity specifically bound to the receptor, it is tested again according to a range of 7 concentrations in order to determine the concentration which inhibits by 50% the radioactivity specifically bound to the receptor. In this way the 50% inhibitory concentration is determined.
(§2) After incubation at 25° C. for 150 minutes, placing in a water-bath at 0° C. for 5 minutes, filtration under vacuum, and rinsing with Tris buffer pH 7.4, the radioactivity is counted in the presence of a scintillating solid.

[2] = target: T2, AT1 receptor of angiotensin II (Rattus norvegicus, UniProt P25095); assay: Test on the AT1 receptor of angiotensin II (displacement of 125I angiotensin II, rat liver membranes); assay type: binding
T2 construct: A fresh membrane preparation obtained from rat's liver is used; from tissue; host or cells: rat liver membranes
T2 sequence (P25095 1-359): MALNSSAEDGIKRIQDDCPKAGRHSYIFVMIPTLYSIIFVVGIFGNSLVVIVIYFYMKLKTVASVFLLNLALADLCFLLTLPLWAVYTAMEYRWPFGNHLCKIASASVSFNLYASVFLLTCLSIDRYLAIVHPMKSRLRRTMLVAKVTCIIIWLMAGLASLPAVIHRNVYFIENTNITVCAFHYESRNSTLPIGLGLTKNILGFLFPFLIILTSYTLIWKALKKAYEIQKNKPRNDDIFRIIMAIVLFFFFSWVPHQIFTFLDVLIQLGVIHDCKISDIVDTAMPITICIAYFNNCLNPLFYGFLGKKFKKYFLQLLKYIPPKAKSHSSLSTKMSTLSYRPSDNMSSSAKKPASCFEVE
Description: 1 - Test on the AT1 -receptor of angiotensin II
A fresh membrane preparation obtained from rat's liver is used. The tissue is ground up in a polytron in a 50 mM Tris buffer pH 7.4, the grinding is followed by 3 centrifugations at 30,000 g for 15 minutes with intermediate take up of the pellets in the Tris buffer pH 7.4.
as §1, with “(The” for “The”, “with 3×10^-5” for “at 3.10^-5”, “times).” for “times.”, “determined).” for “determined.”
as §2

[3] = products P1 to P13, expressed in nM, read-out: On AT2 receptor IC50
[4] = products P1 to P13, expressed in nM, read-out: On AT1 receptor IC50
[5] = rabbit uterus membrane (estradiol pre-treated), 125I angiotensin II, 25° C., 150 minutes, read-out: AT2 Receptor IC50
[6] = rat liver membrane, 125I angiotensin II, 25° C., 150 minutes, read-out: AT1 Receptor IC50

IC50 [1, 3] [nM]	IC50 [2, 4] [nM]	IC50 [1, 5] [nM]	IC50 [2, 6] [nM]	SMILES
14	0.1			CCCCc1nc(SC)c(C(=O)O)n1Cc1ccc(-c2ccccc2S(=O)(=O)NC(=O)NCc2ccccc2)cc1 [Example P2, 2-butyl 4-(methylthio) 1-[(2'-(((((phenylmethyl)amino)carbonyl)amino)sulphonyl) (1,1'-biphenyl) 4-yl)methyl] 1H-imidazole 5-carboxylic acid]
		3.5		CCCc1nc(SC)c(C(=O)O)n1Cc1ccc(-c2ccccc2S(=O)(=O)NC(=O)Nc2ccc(C)cc2)cc1 [Example 63, 1-((2'-(((((4-methylphenyl)amino)carbonyl)amino)sulphonyl) (1,1'-biphenyl) 4-yl)methyl) 4-(methylthio) 2-propyl 1H-imidazole 5-carboxylic acid]
		6.5	2.5	CCCc1nc(SC)c(C(O)C(=O)O)n1Cc1ccc(-c2ccccc2S(=O)(=O)NC(=O)NCc2ccccc2)cc1 (stereo not drawn) [Example 21]
		5.8		CCCc1nc(SC(F)F)c(C(=O)O)n1Cc1ccc(-c2ccccc2S(=O)(=O)NC(=O)NCCC2=CCCCC2)cc1 [Example 56, 1-((2'-(((((2-cyclohexen-1-yl-ethyl)amino)carbonyl)amino)sulphonyl) (1,1'-biphenyl) 4-yl)methyl) 4-((difluoromethyl)thio) 2-propyl 1H-imidazole 5-carboxylic acid]
54	0.8			CCCCc1nc(SC)c(C(=O)O)n1Cc1ccc(-c2ccccc2S(=O)(=O)NC(=O)OCc2ccccc2)cc1 [Example P12, 2-butyl 4-(methylthio) 1-[(2'-(((phenylmethoxycarbonyl)amino)sulphonyl) (1,1'-biphenyl) 4-yl)methyl] 1H-imidazole 5-carboxylic acid]
24	0.14			CCCCc1nc(SC)c(C(=O)O)n1Cc1ccc(-c2ccccc2S(=O)(=O)NC(=O)OCC2CCCCC2)cc1 [Example P11, 2-butyl 1-[(2'-((((cyclohexyl)methoxycarbonyl)amino)sulphonyl) (1,1'-biphenyl) 4-yl)methyl] 4-methylthio 1H-imidazole 5-carboxylic acid]
47	0.5			CCCCc1nc(SC)c(C(=O)O)n1Cc1ccc(-c2ccccc2S(=O)(=O)NC(=O)NCCCCc2ccccc2)cc1 [Example P4, 2-butyl 4-(methylthio) 1-[(^2 '-(((((1-(4-phenylbutyl))amino)carbonyl)amino)sulphonyl) (1,1'-biphenyl) 4-yl)methyl] 1H-imidazole 5-carboxylic acid]
		2.1		CCCc1nc(SC(F)F)c(C(=O)O)n1Cc1ccc(-c2ccccc2S(=O)(=O)NC(=O)CCC2CCCC2)cc1 [Example 54]
			0.06	CCc1nc(SC)c(C(=O)O)n1Cc1ccc(-c2ccccc2S(=O)(=O)NC(=O)NCc2ccccc2)cc1 [Example 44, 2-ethyl 4-(methylthio) 1-((2'-(((((phenylmethyl)amino)carbonyl)amino)sulphonyl) (1,1'-biphenyl) 4-yl)methyl) 1H-imidazole 5-carboxylic acid]
10	0.27			CCCCc1nc(SC)c(C(=O)O)n1Cc1ccc(-c2ccccc2S(=O)(=O)NC(=O)NCc2ccc(F)cc2)cc1 [Example P6, 2-butyl 1-[(2'-((((((4-fluoro)phenylmethyl)amino)carbonyl)amino)sulphonyl) (1,1,1-biphenyl) 4-yl)methyl] 4-methylthio 1H-imidazole 5-carboxylic acid]
		1.9	6.3	CCCCc1nc(SC)c(C(C)(O)C(=O)O)n1Cc1ccc(-c2ccccc2S(=O)(=O)NC(=O)NCC2CCCCC2)cc1 (stereo not drawn) [Example 13, 2-butyl 1-[(2'-(((((cyclohexylmethyl)amino)arbonyl)amino)sulphonyl) (1,1'-biphenyl) 4-yl)methyl] alpha-hydroxy alpha-methyl 4-(methylthio) 1H-imidazole 5-acetic acid]
49	0.4			CCCCc1nc(SC)c(C(=O)O)n1Cc1ccc(-c2ccccc2S(=O)(=O)NC(=O)NC(Cc2ccccc2)C(=O)O)cc1 (stereo not drawn) [Example P7, 2-butyl 1-[(2'-(((((1-(1-carboxy 2-phenyl)ethyl)amino)carbonyl)amino)sulphonyl) (1,1'-biphenyl) 4-yl)methyl] 4-methylthio 1H-imidazole 5-carboxylic acid]
17	0.14			CCCCc1nc(SC)c(C(=O)O)n1Cc1ccc(-c2ccccc2S(=O)(=O)NC(=O)OCc2cccs2)cc1 [Example P8, 2-butyl 4-(methylthio) 1-[(2'-((((2-thienyl)methoxycarbonyl)amino)sulphonyl) (1,1'-biphenyl) 4-yl)methyl] 1H-imidazole 5-carboxylic acid]
		1.6	24	CCCCc1nc(SC)c(C(C)(O)C(=O)O)n1Cc1ccc(-c2ccccc2S(=O)(=O)NC(=O)NCc2ccccc2)cc1 (stereo not drawn) [Example 11]
		8.5	3.4	CCCCc1nc(SC)c(C(C)(O)C(=O)O)n1Cc1ccc(-c2ccccc2S(=O)(=O)NC(=O)NCCC)cc1 (stereo not drawn) [Example 9, 2-butyl alpha-hydroxy alpha-methyl 4-(methylthio) 1-[(2'-((((propylamino)carbonyl)amino)sulphonyl) (1,1'-biphenyl) 4-yl)methyl] 1H-imidazole 5-acetic acid]
		1.3		CCc1nc(SC)c(C(=O)O)n1Cc1ccc(-c2ccccc2S(=O)(=O)NC(=O)NCC2CCCCC2)cc1 [Example 69, potassium 1-((2'-(((((cyclohexylmethyl)amino)carbonyl)amino)sulphonyl) (1,1'-biphenyl 4-yl)methyl) 2-ethyl 4-(methylthio) 1H-imidazole 5-carboxylate (potassium salt)]
25	0.3			CCCCc1nc(SC)c(C(=O)O)n1Cc1ccc(-c2ccccc2S(=O)(=O)NC(=O)NCc2ccc(OC)cc2)cc1 [Example P5, 2-butyl 1-[(2'-((((((4-methoxy)phenylmethyl)amino)carbonyl)amino)sulphonyl) (1,1'-biphenyl) 4-yl)methyl] 4-methylthio 1H-imidazole 5-carboxylic acid]
63	5.9			CCCCc1nc(OC)c(C=O)n1Cc1ccc(-c2ccccc2S(=O)(=O)NC(=O)OCc2ccccc2)cc1 [Example P13, (phenylmethyl) ((4'-((2-butyl 5-formyl 4-methoxy 1H-imidazol 1-yl)methyl) (1,1'-biphenyl) 2-yl)sulphonyl) carbamate]
			0.08	CCCCc1nc(Cl)c(C(=O)O)n1Cc1ccc(-c2ccccc2S(=O)(=O)NC(=O)NCc2ccccc2)cc1 [Example 59]

SMILES	IC50 [1, 3] [nM]	IC50 [2, 4] [nM]	IC50 [1, 5] [nM]	IC50 [2, 6] [nM]
CCCCc1nc(SC)c(C(=O)O)n1Cc1ccc(-c2ccccc2S(=O)(=O)NC(=O)NCC(C)c2ccccc2)cc1 (stereo not drawn) [Example P3, 2-butyl 4-(methylthio) 1-[(2'-(((((1-beta-phenylpropyl)amino)carbonyl)amino)sulphonyl) (1,1'-biphenyl) 4-yl)methyl] 1H-imidazole 5-carboxylic acid]	11	1.1		
CCCc1nc(SC)c(C(O)(C(=O)O)c2ccccc2)n1Cc1ccc(-c2ccccc2S(=O)(=O)NC(=O)NCc2ccccc2)cc1 (stereo not drawn) [Example 34, alpha-hydroxy 4-(methylthio) alpha-phenyl 1-((2'-(((((phenylmethyl)amino)carbonyl)amino)sulphonyl) (1,1'-biphenyl) 4-yl)methyl) 2-propyl 1H-imidazole 5-acetic acid]			2.1	0.7
